Measured values reported in US20160229835A1, “NOVEL PYRIDYLOXYACETYL TETRAHYDROISOQUINOLINE COMPOUNDS USEFUL AS NAMPT INHIBITORS” (ELI LILLY AND COMPANY, priority 2013, published 2016).

Tests used:
H1155 tumor model = assay: Efficacy in Xenograft Tumor Models, NCI-H1155; type: in vivo; conditions: nude mice, 4-day-on and 3-day-off schedule for 17 days
Experimental: (§1) The purpose of this assay is to measure reduction in tumor volume in response to test compound administration. A2780 and NCI-H1155 (NSCLC) cells are grown as described above for IVTI studies. Cells are harvested and injected subcutaneously onto the rear flank of nude mice. When tumors are established (7-21 days after implant), animals are randomized and grouped into control and test groups (7 animals/group). The test compound is formulated in 20% of CAPTISOL® and 25 mM of phosphate buffer, pH 2. Test compound and vehicle (20% of CAPTISOL® and 25 mM of phosphate buffer, pH 2 without compound) are administered by oral gavage. Tumor response is determined by tumor volume measurement (caliper) performed twice a week during the course of treatment and reported as percent of tumor volume of each treatment group divided by tumor volume of the vehicle control group. […] For example, Example 1 in H1155 tumor model, when dosed at 10 mg/kg (twice a day (BID) on a 4-day-on and 3-day-off schedule for 17 days, a T/C of 5.5 (P value<0.001 based on T-test) is achieved; when dosed at 20 mg/kg on the same schedule, a T/C of −81.1 (P value<0.001 based on T-test) is achieved. Example 2 in H1155 tumor model, when dosed at 8 mg/kg (twice a day (BID) on a 4-day-on and 3-day-off schedule for 17 days, a T/C of 5.2 (P value<0.001 based on T-test) is achieved; when dosed at 16 mg/kg on the same schedule, a T/C of −82.7 (P value<0.001 based on T-test) is achieved. Example 1 in A2780 tumor model, when dosed at 10 mg/kg (twice a day (BID) on a 4-day-on and 3-day-off schedule for 17 days, a T/C of 41.7 (P value<0.007 based on T-test) is achieved; when dosed at 20 mg/kg on the same schedule, a T/C of 2.4 (P value<0.001 based on T-test) is achieved.

A2780 tumor model = assay: Efficacy in Xenograft Tumor Models, A2780; type: in vivo; conditions: nude mice, 4-day-on and 3-day-off schedule for 17 days
Experimental: as §1

[1] = test system: MCF-7 (breast cancer) cells; assay: Cell Viability Assay, MCF-7; type: cell-based; conditions: Homo sapiens, MCF7, 72 hours
Experimental: (§2) The purpose of this assay is to measure the ability of a compound to reduce viability of different cancer cells dependent on the NAMPT-mediated NAD^+ formation in vitro. HCC1937 (breast cancer) cells are cultured in RPMI-1640 supplemented with 10% FBS. Calu-6 (lung cancer) cells and MCF-7 (breast cancer) cells are cultured in Minimum Essential Medium (MEM) (Gibco11095) supplemented with 1 mM sodium pyruvate (Gibco 11360), 1% Non-Essential Amino Acids Solution (100×; Gibco 11140) and 10% FBS. NCI-H1155 (lung cancer) cells are cultured in Dulbecco's Modified Eagle Medium (DMEM) (Gibco 11965) with 10% FBS. […] Cell viability is analyzed by using an assay kit (CYTOTOX-GLO™ Cytotoxicity Assay kit, Promega) according to the manufacturer's instructions as follows. […] Luminescence is measured using a Wallac Victor3 V 1420 Multilabel Counter (Perkin Elmer), referred to as dead cell luminescence. […] After the plate is incubated at room temperature for 15 minutes, luminescence is measured using the plate reader, referred to as total luminescence. Viable cell luminescence (CPS) is calculated by subtracting the dead cell luminescence from the total luminescence Inhibition of cell viability is calculated based on the equation as follows:
(§3) Inhibition (%)=(CPSnegative−CPSsample)/(CPSnegative−CPSpositive)*100 where CPS is the luminescence of viable cells.

[2] = test system: Calu-6 (lung cancer) cells; assay: Cell Viability Assay, Calu-6; type: cell-based; conditions: Homo sapiens, 72 hours
Experimental: as §2, §3

`CC(C)(O)CS(=O)(=O)Nc1ccc2c(c1)CCN(C(=O)COc1cccnc1)C2` [Example 1, 2-Hydroxy-2-methyl-N-[2-[2-(3-pyridyloxy)acetyl]-3,4-dihydro-1H-isoquinolin-6-yl]propane-1-sulfonamide] was tested, and the “T/C (tumor volume of treatment group divided by vehicle control group)” value (H1155 tumor model; 10 mg/kg BID oral) was 5.5%, the “T/C (tumor volume of treatment group divided by vehicle control group)” value (H1155 tumor model; 20 mg/kg BID oral) was −81.1% and the “T/C (tumor volume of treatment group divided by vehicle control group)” value (A2780 tumor model; 10 mg/kg BID oral) was 41.7%. The “T/C (tumor volume of treatment group divided by vehicle control group)” value (A2780 tumor model; 20 mg/kg BID oral) was 2.4%, the IC50 [1] was 389 ± 283 nM and the IC50 [2] was 49 ± 8 nM.

With `COCCS(=O)(=O)Nc1ccc2c(c1)CCN(C(=O)COc1cccnc1)C2` [Example 2, 2-Methoxy-N-[2-[2-(3-pyridyloxy)acetyl]-3,4-dihydro-1H-isoquinolin-6-yl]ethanesulfonamide] the “T/C (tumor volume of treatment group divided by vehicle control group)” value (H1155 tumor model; 8 mg/kg BID oral) was 5.2%, the “T/C (tumor volume of treatment group divided by vehicle control group)” value (H1155 tumor model; 16 mg/kg BID oral) was −82.7% and the “T/C (tumor volume of treatment group divided by vehicle control group)” value (A2780 tumor model; 8 mg/kg BID oral) was 40.5%. For the same compound, the “T/C (tumor volume of treatment group divided by vehicle control group)” value (A2780 tumor model; 16 mg/kg BID oral) was 1.5%, the IC50 [1] was 352 ± 252 nM and the IC50 [2] was 121 ± 29 nM.
